In US6787550B1, “Indole derivatives and their use for the treatment of osteoporosis amongst other applications” (Nikem Research S.r.l., priority 1999, dated 2004):

system: not given; conditions: not given

Structure (SMILES)	melting point
CC1(C)CC(NC(=O)c2ccc(-c3cc4cc(Cl)c(Cl)cc4[nH]3)c(OCc3ccccc3)c2)CC(C)(C)N1 [Example 2, 4-(5,6-Dichloro-1H-indol-2-yl)-3-benzyloxy-N-(2,2,6,6-tetramethylpiperidin-4-yl)-benzamide]	220 °C
CC1(C)CC(NC(=O)c2ccc(-c3cc4cc(Cl)c(Cl)cc4[nH]3)c(O)c2)CC(C)(C)N1 [Example 3, 4-(5,6-Dichloro-1H-indol-2-yl)-3-hydroxy-N-(2,2,6,6-tetramethylpiperidin-4-yl)-benzamide]	> 270 °C
CCCOc1cc(C(=O)NC2CC(C)(C)NC(C)(C)C2)ccc1-c1cc2cc(Cl)c(Cl)cc2[nH]1 [Example 4, 4-(5,6-Dichloro-1H-indol-2-yl)-3-propoxy-N-(2,2,6,6-tetramethylpiperidin-4-yl)benzamide]	> 250 °C

system: osteoclast proton pump; conditions: avian osteoclast membrane vesicles; literature background; cited from earlier work

Structure (SMILES)	inhibition of proton transport
Cc1nc2c(OCc3ccccc3)cccn2c1CC#N [SCH 28080]	not inhibited
C[C@@H]1O[C@@H](O[C@H]2C[C@@H](O)[C@]3(CO)[C@H]4[C@H](O)C[C@]5(C)[C@@H](C6=CC(=O)OC6)CC[C@]5(O)[C@@H]4CC[C@]3(O)C2)[C@H](O)[C@H](O)[C@H]1O [ouabain]	not inhibited
[Na+].[Na+].[Na+].[O]=[V]([O-])([O-])[O-] [sodium orthovanadate]	not inhibited
CO/C1=C\C(C)=C\[C@@H](C)[C@@H](O)[C@@H](C)C/C(C)=C/C=C/[C@H](OC)[C@@H]([C@@H](C)[C@@H](O)[C@H](C)[C@@]2(O)C[C@@H](O)[C@H](C)[C@@H](C(C)C)O2)OC1=O [bafilomycin A1]	inhibited
CCN1C(=O)C=CC1=O [N-ethylmaleimide (NEM), N-ethylmaleimide]	inhibited

system: osteoclast cultures; conditions: literature background; cited from earlier work

Structure (SMILES)	inhibition of bone resorption
CO/C1=C\C(C)=C\[C@@H](C)[C@@H](O)[C@@H](C)C/C(C)=C/C=C/[C@H](OC)[C@@H]([C@@H](C)[C@@H](O)[C@H](C)[C@@]2(O)C[C@@H](O)[C@H](C)[C@@H](C(C)C)O2)OC1=O [bafilomycin A1]	able to inhibit bone resorption
